Measurements: ChEMBL document CHEMBL1201862, “PubChem BioAssay data set” (2004)
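Where inhibition never reached the appropriate level, the endpoint shown equals the highest concentration tested. Otherwise, values were interpolated linearly from a five-concentration, 48-hour dose response in 96-well plates. At the GI50, growth is halved.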 The source made the active and inactive calls. No stated cut-off is given here; in the data, active = GI50 up to about 1.1 µM and inactive = higher.

How the values were obtained:
Experiment in all cases: DTP human tumour cell line panel, 48 h
A549 = test system: A549
ACHN = test system: ACHN
CCRF-CEM = test system: CCRF-CEM
DMS-273 = test system: DMS-273
HCT-116 = test system: HCT-116
HL-60 = test system: HL-60
IGROV-1 = test system: IGROV-1
LOX IMVI = test system: LOX IMVI
M14 = test system: M14
NCI-H226 = test system: NCI-H226
OVCAR-3 = test system: OVCAR-3
OVCAR-4 = test system: OVCAR-4
OVCAR-8 = test system: OVCAR-8
RXF 393 = test system: RXF 393
SF-539 = test system: SF-539
SK-OV-3 = test system: SK-OV-3
SNB-19 = test system: SNB-19
UO-31 = test system: UO-31
SNB-75 = test system: SNB-75
U-251 = test system: U-251

Compound | GI50 (A549) | GI50 (ACHN) | GI50 (CCRF-CEM) | GI50 (DMS-273) | GI50 (HCT-116) | GI50 (HL-60) | GI50 (IGROV-1) | GI50 (LOX IMVI) | GI50 (M14) | GI50 (NCI-H226) | GI50 (OVCAR-3) | GI50 (OVCAR-4) | GI50 (OVCAR-8) | GI50 (RXF 393) | GI50 (SF-539) | GI50 (SK-OV-3) | GI50 (SNB-19) | GI50 (UO-31) | GI50 (SNB-75) | GI50 (U-251)
O=c1n(CC2CO2)c2ccccc2n1CC1CS1 (centres undefined) | > 100 µM (inactive) | > 100 µM (inactive) | 63.2 µM (inactive) | > 100 µM (inactive) | 67.3 µM (inactive) | 11.1 µM (inactive) | > 100 µM (inactive) | 71 µM (inactive) | > 100 µM (inactive) | > 100 µM (inactive) | 78.7 µM (inactive) | > 100 µM (inactive) | > 100 µM (inactive) | 57 µM (inactive) | > 100 µM (inactive) | > 10 µM (inactive) | > 100 µM (inactive) | > 100 µM (inactive) | – | –
Cc1ccc(Cl)cc1/N=N/C(=O)NNc1cc(Cl)ccc1C | – | – | 10 µM (inactive) | – | 25.4 µM (inactive) | 58.9 µM (inactive) | 15.3 µM (inactive) | – | 14.5 µM (inactive) | 20.1 µM (inactive) | 14.7 µM (inactive) | – | – | 21 µM (inactive) | – | 20.3 µM (inactive) | 19.4 µM (inactive) | 14.1 µM (inactive) | 13.1 µM (inactive) | 19.7 µM (inactive)
CC1(C)CCc2cc3c(-c4ccccc4)cc(=O)oc3cc2O1 | – | > 100 µM (inactive) | > 100 µM (inactive) | > 100 µM (inactive) | – | > 100 µM (inactive) | > 100 µM (inactive) | > 100 µM (inactive) | > 100 µM (inactive) | > 100 µM (inactive) | > 100 µM (inactive) | – | > 100 µM (inactive) | – | 38.5 µM (inactive) | > 100 µM (inactive) | 87.5 µM (inactive) | > 100 µM (inactive) | 13.7 µM (inactive) | > 100 µM (inactive)
CCOc1ccc(C(C)c2cc3c(cc2OC)OCO3)cc1 (centres undefined) | 0.455 µM (active) | 0.897 µM (active) | – | 0.245 µM (active) | 0.371 µM (active) | – | 2.75 µM (inactive) | 0.259 µM (active) | 0.361 µM (active) | 0.207 µM (active) | 0.221 µM (active) | > 100 µM (inactive) | 0.424 µM (active) | 0.222 µM (active) | 0.271 µM (active) | 0.32 µM (active) | 0.561 µM (active) | 0.491 µM (active) | 0.277 µM (active) | 0.38 µM (active)
CCC1=NC(C(F)(F)F)(C(F)(F)F)N=C(N2CCOCC2)O1 | > 100 µM (inactive) | > 100 µM (inactive) | > 100 µM (inactive) | – | > 100 µM (inactive) | > 100 µM (inactive) | > 100 µM (inactive) | > 100 µM (inactive) | > 100 µM (inactive) | – | > 100 µM (inactive) | > 100 µM (inactive) | > 100 µM (inactive) | > 100 µM (inactive) | > 100 µM (inactive) | > 100 µM (inactive) | > 100 µM (inactive) | > 100 µM (inactive) | > 100 µM (inactive) | > 100 µM (inactive)
O=c1c2ccccc2[nH]c2cc(O)cc(O)c12 | 92.5 µM (inactive) | 26.4 µM (inactive) | 49 µM (inactive) | 35.1 µM (inactive) | 55.6 µM (inactive) | > 100 µM (inactive) | < 0.01 µM (active) | 32.1 µM (inactive) | 91 µM (inactive) | 27.2 µM (inactive) | 53.1 µM (inactive) | > 100 µM (inactive) | 30.6 µM (inactive) | > 100 µM (inactive) | 41.5 µM (inactive) | 85.5 µM (inactive) | > 100 µM (inactive) | 21 µM (inactive) | 47.9 µM (inactive) | 79.3 µM (inactive)
CCCCOC(=O)CN1C(=O)c2ccccc2C1=O | > 100 µM (inactive) | > 100 µM (inactive) | – | > 100 µM (inactive) | > 100 µM (inactive) | > 100 µM (inactive) | > 100 µM (inactive) | > 100 µM (inactive) | > 100 µM (inactive) | > 100 µM (inactive) | > 100 µM (inactive) | > 100 µM (inactive) | > 100 µM (inactive) | > 100 µM (inactive) | > 100 µM (inactive) | > 100 µM (inactive) | > 100 µM (inactive) | > 100 µM (inactive) | > 100 µM (inactive) | > 100 µM (inactive)
C=C(C)C1CC2=C(O1)C(=O)c1ccccc1C2=O (stereo not drawn) [DEHYDROISO-ALPHA-LAPACHONE] | 21 µM (inactive) | – | 16.3 µM (inactive) | 17.4 µM (inactive) | – | 3.38 µM (inactive) | 20 µM (inactive) | 9.18 µM (inactive) | 18.5 µM (inactive) | > 10 µM (inactive) | 18.9 µM (inactive) | 11.3 µM (inactive) | 17.3 µM (inactive) | 18.9 µM (inactive) | 18.5 µM (inactive) | > 100 µM (inactive) | 29.8 µM (inactive) | – | 17.6 µM (inactive) | 16.5 µM (inactive)
